Data as given in the NIST ThermoML archive (doi:10.1016/j.jct.2007.04.005).
Numbers after ± are expanded uncertainties.

Assay: xn = mol fraction of the nth substance listed
Details: 328.15 K, Liquid

For CCCCCCCCC [nonane] + C1CCCCC1, the mass density (18340 kPa, x2 = 0.7052) was 737.9 ± 1.3 kg/m3, the mass density (18340 kPa, x2 = 0.7993) was 744.5 ± 1.3 kg/m3 and the mass density (18340 kPa, x2 = 0.9039) was 753.1 ± 1.2 kg/m3. It also gave a mass density (20370 kPa, x2 = 0) of 708.4 ± 1.6 kg/m3, a mass density (20370 kPa, x2 = 0.09303) of 711.2 ± 1.6 kg/m3 and a mass density (20370 kPa, x2 = 0.2009) of 715.1 ± 1.5 kg/m3. It also gave a mass density (20370 kPa, x2 = 0.3051) of 719 ± 1.5 kg/m3, a mass density (20370 kPa, x2 = 0.417) of 723.6 ± 1.5 kg/m3 and a mass density (20370 kPa, x2 = 0.512) of 728 ± 1.5 kg/m3. It also gave a mass density (20370 kPa, x2 = 0.5996) of 733 ± 1.4 kg/m3, a mass density (20370 kPa, x2 = 0.7052) of 739.5 ± 1.4 kg/m3 and a mass density (20370 kPa, x2 = 0.7993) of 746.2 ± 1.4 kg/m3. The mass density (20370 kPa, x2 = 0.9039) was 754.8 ± 1.3 kg/m3, the mass density (22390 kPa, x2 = 0) was 710 ± 1.7 kg/m3 and the mass density (22390 kPa, x2 = 0.09303) was 712.8 ± 1.7 kg/m3. The mass density (22390 kPa, x2 = 0.2009) was 716.7 ± 1.6 kg/m3, the mass density (22390 kPa, x2 = 0.3051) was 720.6 ± 1.6 kg/m3 and the mass density (22390 kPa, x2 = 0.417) was 725.2 ± 1.6 kg/m3. It also gave a mass density (22390 kPa, x2 = 0.512) of 729.6 ± 1.5 kg/m3, a mass density (22390 kPa, x2 = 0.5996) of 734.7 ± 1.5 kg/m3 and a mass density (22390 kPa, x2 = 0.7052) of 741.2 ± 1.5 kg/m3. It also gave a mass density (22390 kPa, x2 = 0.7993) of 747.9 ± 1.4 kg/m3, a mass density (22390 kPa, x2 = 0.9039) of 756.5 ± 1.4 kg/m3 and a mass density (24420 kPa, x2 = 0) of 711.5 ± 1.8 kg/m3. The mass density (24420 kPa, x2 = 0.09303) was 714.4 ± 1.7 kg/m3, the mass density (24420 kPa, x2 = 0.2009) was 718.2 ± 1.7 kg/m3 and the mass density (24420 kPa, x2 = 0.3051) was 722.2 ± 1.7 kg/m3. It also gave a mass density (24420 kPa, x2 = 0.417) of 726.8 ± 1.6 kg/m3, a mass density (24420 kPa, x2 = 0.512) of 731.2 ± 1.6 kg/m3 and a mass density (24420 kPa, x2 = 0.5996) of 736.3 ± 1.6 kg/m3. The mass density (24420 kPa, x2 = 0.7052) was 742.8 ± 1.5 kg/m3, the mass density (24420 kPa, x2 = 0.7993) was 749.5 ± 1.5 kg/m3 and the mass density (24420 kPa, x2 = 0.9039) was 758.1 ± 1.4 kg/m3. It also gave a mass density (26450 kPa, x2 = 0) of 713 ± 1.9 kg/m3, a mass density (26450 kPa, x2 = 0.09303) of 715.9 ± 1.8 kg/m3 and a mass density (26450 kPa, x2 = 0.2009) of 719.8 ± 1.8 kg/m3. For the same compound, the mass density (26450 kPa, x2 = 0.3051) was 723.7 ± 1.8 kg/m3, the mass density (26450 kPa, x2 = 0.417) was 728.3 ± 1.7 kg/m3 and the mass density (26450 kPa, x2 = 0.512) was 732.7 ± 1.7 kg/m3. The mass density (26450 kPa, x2 = 0.5996) was 737.9 ± 1.6 kg/m3, the mass density (26450 kPa, x2 = 0.7052) was 744.4 ± 1.6 kg/m3 and the mass density (26450 kPa, x2 = 0.7993) was 751.1 ± 1.6 kg/m3. It also gave a mass density (26450 kPa, x2 = 0.9039) of 759.8 ± 1.5 kg/m3, a mass density (28470 kPa, x2 = 0) of 714.5 ± 1.9 kg/m3 and a mass density (28470 kPa, x2 = 0.09303) of 717.4 ± 1.9 kg/m3. The mass density (28470 kPa, x2 = 0.2009) was 721.3 ± 1.9 kg/m3, the mass density (28470 kPa, x2 = 0.3051) was 725.2 ± 1.8 kg/m3 and the mass density (28470 kPa, x2 = 0.417) was 729.8 ± 1.8 kg/m3. The mass density (28470 kPa, x2 = 0.512) was 734.2 ± 1.8 kg/m3, the mass density (28470 kPa, x2 = 0.5996) was 739.4 ± 1.7 kg/m3 and the mass density (28470 kPa, x2 = 0.7052) was 746 ± 1.7 kg/m3. For the same compound, the mass density (28470 kPa, x2 = 0.7993) was 752.6 ± 1.6 kg/m3, the mass density (28470 kPa, x2 = 0.9039) was 761.4 ± 1.6 kg/m3 and the mass density (29490 kPa, x2 = 0) was 715.2 ± 2 kg/m3. For the same compound, the mass density (29490 kPa, x2 = 0.09303) was 718.1 ± 1.9 kg/m3, the mass density (29490 kPa, x2 = 0.2009) was 722 ± 1.9 kg/m3 and the mass density (29490 kPa, x2 = 0.3051) was 725.9 ± 1.9 kg/m3. It also gave a mass density (29490 kPa, x2 = 0.417) of 730.6 ± 1.8 kg/m3, a mass density (29490 kPa, x2 = 0.512) of 735 ± 1.8 kg/m3 and a mass density (29490 kPa, x2 = 0.5996) of 740.2 ± 1.8 kg/m3. For the same compound, the mass density (29490 kPa, x2 = 0.7052) was 746.7 ± 1.7 kg/m3, the mass density (29490 kPa, x2 = 0.7993) was 753.4 ± 1.7 kg/m3 and the mass density (29490 kPa, x2 = 0.9039) was 762.1 ± 1.6 kg/m3. It also gave a mass density (30500 kPa, x2 = 0) of 716 ± 2 kg/m3, a mass density (30500 kPa, x2 = 0.09303) of 718.8 ± 2 kg/m3 and a mass density (30500 kPa, x2 = 0.2009) of 722.8 ± 1.9 kg/m3. It also gave a mass density (30500 kPa, x2 = 0.3051) of 726.7 ± 1.9 kg/m3, a mass density (30500 kPa, x2 = 0.417) of 731.3 ± 1.9 kg/m3 and a mass density (30500 kPa, x2 = 0.512) of 735.7 ± 1.8 kg/m3. It also gave a mass density (30500 kPa, x2 = 0.5996) of 740.9 ± 1.8 kg/m3, a mass density (30500 kPa, x2 = 0.7052) of 747.5 ± 1.7 kg/m3 and a mass density (30500 kPa, x2 = 0.7993) of 754.2 ± 1.7 kg/m3. It also gave a mass density (30500 kPa, x2 = 0.9039) of 762.9 ± 1.6 kg/m3, a mass density (32530 kPa, x2 = 0) of 717.4 ± 2.1 kg/m3 and a mass density (32530 kPa, x2 = 0.09303) of 720.3 ± 2.1 kg/m3. The mass density (32530 kPa, x2 = 0.2009) was 724.2 ± 2 kg/m3, the mass density (32530 kPa, x2 = 0.3051) was 728.1 ± 2 kg/m3 and the mass density (32530 kPa, x2 = 0.417) was 732.8 ± 1.9 kg/m3. It also gave a mass density (32530 kPa, x2 = 0.512) of 737.2 ± 1.9 kg/m3, a mass density (32530 kPa, x2 = 0.5996) of 742.4 ± 1.9 kg/m3 and a mass density (32530 kPa, x2 = 0.7052) of 748.9 ± 1.8 kg/m3. It also gave a mass density (32530 kPa, x2 = 0.7993) of 755.7 ± 1.8 kg/m3, a mass density (32530 kPa, x2 = 0.9039) of 764.4 ± 1.7 kg/m3 and a mass density (34550 kPa, x2 = 0) of 718.8 ± 2.2 kg/m3. It also gave a mass density (34550 kPa, x2 = 0.09303) of 721.7 ± 2.1 kg/m3, a mass density (34550 kPa, x2 = 0.2009) of 725.6 ± 2.1 kg/m3 and a mass density (34550 kPa, x2 = 0.3051) of 729.6 ± 2.1 kg/m3. For the same compound, the mass density (34550 kPa, x2 = 0.417) was 734.2 ± 2 kg/m3, the mass density (34550 kPa, x2 = 0.512) was 738.7 ± 2 kg/m3 and the mass density (34550 kPa, x2 = 0.5996) was 743.9 ± 1.9 kg/m3. For the same compound, the mass density (34550 kPa, x2 = 0.7052) was 750.5 ± 1.9 kg/m3, the mass density (34550 kPa, x2 = 0.7993) was 757.1 ± 1.8 kg/m3 and the mass density (34550 kPa, x2 = 0.9039) was 765.9 ± 1.8 kg/m3. The mass density (36580 kPa, x2 = 0) was 720.2 ± 2.3 kg/m3, the mass density (36580 kPa, x2 = 0.09303) was 723.1 ± 2.2 kg/m3 and the mass density (36580 kPa, x2 = 0.2009) was 727 ± 2.2 kg/m3. It also gave a mass density (36580 kPa, x2 = 0.3051) of 730.9 ± 2.1 kg/m3, a mass density (36580 kPa, x2 = 0.417) of 735.7 ± 2.1 kg/m3 and a mass density (36580 kPa, x2 = 0.512) of 740.1 ± 2 kg/m3. For the same compound, the mass density (36580 kPa, x2 = 0.5996) was 745.3 ± 2 kg/m3, the mass density (36580 kPa, x2 = 0.7052) was 751.9 ± 1.9 kg/m3 and the mass density (36580 kPa, x2 = 0.7993) was 758.6 ± 1.9 kg/m3. It also gave a mass density (36580 kPa, x2 = 0.9039) of 767.4 ± 1.8 kg/m3, a mass density (38600 kPa, x2 = 0) of 721.6 ± 2.3 kg/m3 and a mass density (38600 kPa, x2 = 0.09303) of 724.4 ± 2.3 kg/m3. For the same compound, the mass density (38600 kPa, x2 = 0.2009) was 728.4 ± 2.3 kg/m3, the mass density (38600 kPa, x2 = 0.3051) was 732.3 ± 2.2 kg/m3 and the mass density (38600 kPa, x2 = 0.417) was 737 ± 2.2 kg/m3. The mass density (38600 kPa, x2 = 0.512) was 741.5 ± 2.1 kg/m3, the mass density (38600 kPa, x2 = 0.5996) was 746.7 ± 2.1 kg/m3 and the mass density (38600 kPa, x2 = 0.7052) was 753.3 ± 2 kg/m3. It also gave a mass density (38600 kPa, x2 = 0.7993) of 760 ± 2 kg/m3, a mass density (38600 kPa, x2 = 0.9039) of 768.9 ± 1.9 kg/m3 and a mass density (39620 kPa, x2 = 0) of 722.2 ± 2.4 kg/m3. For the same compound, the mass density (39620 kPa, x2 = 0.09303) was 725.1 ± 2.3 kg/m3, the mass density (39620 kPa, x2 = 0.2009) was 729 ± 2.3 kg/m3 and the mass density (39620 kPa, x2 = 0.3051) was 733 ± 2.2 kg/m3. For the same compound, the mass density (39620 kPa, x2 = 0.417) was 737.7 ± 2.2 kg/m3, the mass density (39620 kPa, x2 = 0.512) was 742.1 ± 2.2 kg/m3 and the mass density (39620 kPa, x2 = 0.5996) was 747.4 ± 2.1 kg/m3. For the same compound, the mass density (39620 kPa, x2 = 0.7052) was 754 ± 2.1 kg/m3, the mass density (39620 kPa, x2 = 0.7993) was 760.7 ± 2 kg/m3 and the mass density (39620 kPa, x2 = 0.9039) was 769.6 ± 1.9 kg/m3.
